Like-named read-outs stand apart in the source and are kept apart here.
Experiments:
[1] = test system: CTX-M-15 KP1009; assay type: cell-based
[2] = test system: ECL1002; assay type: cell-based; settings: minimum BLI concentration inhibiting growth with tigemonam at 4 μg/mL
[3] = test system: SHV-5 ec308; test: Aztreonam potentiation (MPC@4); assay type: cell-based; settings: minimum BLI concentration inhibiting growth with 4 μg/mL aztreonam
[4] = test system: KP1004 KPC-2; test: Biapenem potentiation (MPC@1); assay type: cell-based; settings: minimum BLI concentration inhibiting growth with 1 μg/mL biapenem
Procedure: (§1) Biapenem was present in the test medium at 1 μg/mL. […] Table 3 summarizes the BLI potency of biapenem potentiation (MPC@1) for two strains overexpressing class A (KPC) and class D (OXA-48) carbapenemases. Biapenem MIC for each strain is also shown.

[5] = test system: OXA-48 KP1086; test: Biapenem potentiation (MPC@1); assay type: cell-based; settings: minimum BLI concentration inhibiting growth with 1 μg/mL biapenem
Procedure: as §1

[6] = Intravenous pharmacokinetics; assay type: in vivo; settings: rat, plasma, rats, IV infusion over 0.5 hours, read-out: Free Cl (converted)
Procedure: Rats (n=3 per compound) were administered by a single infusion. IV doses were infused over 0.5 hours via an indwelling femoral vein cannula. Plasma (˜0.3 mL) samples were collected from each rat at designated time points up to 24 hours. Blood samples were centrifuged within 5 min of collection at 12000 g for 5 min to obtain plasma. The plasma samples were stored at −80° C. until analyzed. Data were analyzed using WinNonlin.

[7] = test system: ECL1002; test: Aztreonam potentiation (MPC@4); assay type: cell-based; settings: minimum BLI concentration inhibiting growth with 4 μg/mL aztreonam
[8] = test system: KPC-2 KP1004; test: Aztreonam potentiation (MPC@4); assay type: cell-based; settings: minimum BLI concentration inhibiting growth with 4 μg/mL aztreonam
[9] = test system: CTX-M-14 KP1005; assay type: cell-based
[10] = test system: SHV-5 ec308; assay type: cell-based; settings: minimum BLI concentration inhibiting growth with tigemonam at 4 μg/mL
[11] = molecular target: SHV-12 (Klebsiella pneumoniae, UniProt P0AD64, E235K/G234S/L31Q); test: Inhibition of nitrocefin cleavage by purified enzyme (Ki); assay type: biochemical; settings: nitrocefin reporter substrate, 10 min preincubation; read-out: Ki (SHV-12, NCF)
Procedure: Purified enzymes were mixed with various concentrations of inhibitors in reaction buffer and incubated for 10 min at room temperature. Nitrocefin was added and substrate cleavage profiles were recorded at 490 nm every 10 sec for 10 min.

[12] = Serum stability of prodrugs (hydrolysis by human serum); assay type: in vitro ADME; settings: 37° C.
Procedure: (§2) Prodrug strategy is one of the ways to achieve or increase oral bioavailability of therapeutic drugs. Compound 13 was used as template a for various ester prodrugs. After a prodrug molecule is absorbed into systemic circulation, the prodrug molecule can be hydrolyzed in the blood to release the active form. The hydrolysis of several prodrugs by rat and human serum were evaluated.
(§3) For all stability experiments the test compounds are treated with rat or human serum in Eppendorf tubes. One example of the testing procedures includes: 992 μl of serum was prewarmed at 37° C. for 2 minutes and then 8 μl of a compound (at 5 mg/ml, 125×) was added to get a final concentration of 40 μg/ml and immediately mixed. Alternatively, serum stability can be tested at 1 mg/ml. […] After vortexing for 30 seconds, the tube was centrifuged in a microcentrifuge for 10 minutes at 15K rpm. Next, 100 μl of the supernatant was combined with 600 μl of water and injected on LC-MS using 0.1% formic acid in water for mobile phase A and 0.1% formic acid in methanol for mobile phase B on an ACE 5 C18 2.1×100 mm column with a 10 μL injection. The flow rate and gradient are adjusted as needed to give the desired resolution and run time. The pH of the mobile phase is adjusted if needed to improve the chromatography.
(§4) The time course of both the disappearance of a prodrug and the appearance of the active form of that prodrug is presented in Table 9a and Table 9b.

[13] = Serum stability of prodrugs (hydrolysis by rat serum); assay type: in vitro ADME; settings: 37° C.
Procedure: as §2, §3, §4

Chain of SHV-12 (P0AD64 22-286 L31Q/G234S/E235K): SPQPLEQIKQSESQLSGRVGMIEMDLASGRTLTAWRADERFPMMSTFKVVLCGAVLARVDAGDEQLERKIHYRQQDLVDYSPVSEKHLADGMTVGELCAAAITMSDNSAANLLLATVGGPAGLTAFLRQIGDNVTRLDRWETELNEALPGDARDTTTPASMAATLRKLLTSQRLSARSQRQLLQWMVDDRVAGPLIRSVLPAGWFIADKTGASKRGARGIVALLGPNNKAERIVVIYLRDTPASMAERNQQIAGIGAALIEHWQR

Row | SMILES | TIG MPC4 CTX-M-15 KP1009 [1] | TIG MPC4 ECL1002 [2] | AZT MPC4 SHV-5 ec308 [3] | BPM MPC1 KP1004 KPC-2 [4] | BPM MPC1 OXA-48 KP1086 [5] | clearance ([6]; dose 20 mg/kg) | AZT MPC4 ECL1002 [7] | AZT MPC4 KPC-2 KP1004 [8] | TIG MPC4 CTX-M-14 KP1005 [9] | TIG MPC4 SHV-5 ec308 [10] | Ki [11] | clearance ([6]; dose 10 mg/kg) | Measured Initial Conc. in Serum (prodrug) [12] | Conc. at t = 2 hr (prodrug) [12] | Conc. at t = 4 hr (prodrug) [12] | Measured Initial Conc. in Serum (prodrug) [13] | Conc. at t = 2 hr (prodrug) [13] | Conc. at t = 4 hr (prodrug) [13]
1 | Nc1nnc(SCC(=O)N[C@H]2Cc3cccc(C(=O)O)c3OB2O)s1 [Compound 5, (R)-3-(2-(5-amino-1,3,4-thiadiazol-2-ylthio)acetamido)-2-hydroxy-3,4-dihydro-2H-benzo[e][1,2]oxaborinine-8-carboxylic acid] | X (key: X: MIC of less than 1 μg/mL; Y: MIC of 1 μg/mL to 10 μg/mL; Z: MIC of greater than 10 μg/mL) | X (MIC of less than 1 μg/mL) | X (MIC of less than 1 μg/mL) | X (MIC of less than 1 μg/mL) | Y (MIC of 1 μg/mL to 10 μg/mL) | 28.5 mL/min/kg | Y (MIC of 1 μg/mL to 10 μg/mL) | Y (MIC of 1 μg/mL to 10 μg/mL) | X (key: X: MIC of less than 1 μg/mL; Y: MIC of 1 μg/mL to 10 μg/mL; Z: MIC of greater than 10 μg/mL) | Y (MIC of 1 μg/mL to 10 μg/mL) |  |  |  |  |  |  |  | 
2 | O=C(CSc1nncs1)N[C@H]1Cc2cccc(C(=O)O)c2OB1O [Compound 7, (R)-3-(2-(1,3,4-thiadiazol-2-ylthio)acetamido)-2-hydroxy-3,4-dihydro-2H-benzo[e][1,2]oxaborinine-8-carboxylic acid] | X (key: X: MIC of less than 1 μg/mL; Y: MIC of 1 μg/mL to 10 μg/mL; Z: MIC of greater than 10 μg/mL) | Y (MIC of 1 μg/mL to 10 μg/mL) | X (MIC of less than 1 μg/mL) | X (MIC of less than 1 μg/mL) | Y (MIC of 1 μg/mL to 10 μg/mL) | 60.7 mL/min/kg | Y (MIC of 1 μg/mL to 10 μg/mL) | Y (MIC of 1 μg/mL to 10 μg/mL) | X (key: X: MIC of less than 1 μg/mL; Y: MIC of 1 μg/mL to 10 μg/mL; Z: MIC of greater than 10 μg/mL) | X (MIC of less than 1 μg/mL) | < 1 nM |  |  |  |  |  |  | 
3 | [N-]=[N+]=NCC(=O)N[C@H]1Cc2cccc(C(=O)O)c2OB1O [Compound 8, (R)-3-(2-azidoacetamido)-2-hydroxy-3,4-dihydro-2H-benzo[e][1,2]oxaborinine-8-carboxylic acid] | X (key: X: MIC of less than 1 μg/mL; Y: MIC of 1 μg/mL to 10 μg/mL; Z: MIC of greater than 10 μg/mL) | X (MIC of less than 1 μg/mL) | X (MIC of less than 1 μg/mL) | X (MIC of less than 1 μg/mL) | Y (MIC of 1 μg/mL to 10 μg/mL) |  | Y (MIC of 1 μg/mL to 10 μg/mL) | X (MIC of less than 1 μg/mL) | X (key: X: MIC of less than 1 μg/mL; Y: MIC of 1 μg/mL to 10 μg/mL; Z: MIC of greater than 10 μg/mL) | Y (MIC of 1 μg/mL to 10 μg/mL) | < 1 nM | 35 mL/min/kg |  |  |  |  |  | 
4 | O=C(N[C@H]1Cc2cccc(C(=O)O)c2OB1O)c1cccnc1 [Compound 12, (R)-2-hydroxy-3-(nicotinamido)-3,4-dihydro-2H-benzo[e][1,2]oxaborinine-8-carboxylic acid] | Y (key: X: MIC of less than 1 μg/mL; Y: MIC of 1 μg/mL to 10 μg/mL; Z: MIC of greater than 10 μg/mL) | X (MIC of less than 1 μg/mL) | Y (MIC of 1 μg/mL to 10 μg/mL) | X (MIC of less than 1 μg/mL) | Y (MIC of 1 μg/mL to 10 μg/mL) |  | X (MIC of less than 1 μg/mL) | Y (MIC of 1 μg/mL to 10 μg/mL) | Y (key: X: MIC of less than 1 μg/mL; Y: MIC of 1 μg/mL to 10 μg/mL; Z: MIC of greater than 10 μg/mL) | Y (MIC of 1 μg/mL to 10 μg/mL) | < 1 nM | 45.7 mL/min/kg |  |  |  |  |  | 
5 | O=C(N[C@H]1Cc2cccc(C(=O)O)c2OB1O)c1cncnc1 [Compound 18, (R)-2-hydroxy-3-(pyrimidine-5-carboxamido)-3,4-dihydro-2H-benzo[e][1,2]oxaborinine-8-carboxylic acid] | Y (key: X: MIC of less than 1 μg/mL; Y: MIC of 1 μg/mL to 10 μg/mL; Z: MIC of greater than 10 μg/mL) | Y (MIC of 1 μg/mL to 10 μg/mL) | Y (MIC of 1 μg/mL to 10 μg/mL) | Y (MIC of 1 μg/mL to 10 μg/mL) | Y (MIC of 1 μg/mL to 10 μg/mL) |  | Y (MIC of 1 μg/mL to 10 μg/mL) | Y (MIC of 1 μg/mL to 10 μg/mL) | Y (key: X: MIC of less than 1 μg/mL; Y: MIC of 1 μg/mL to 10 μg/mL; Z: MIC of greater than 10 μg/mL) | Y (MIC of 1 μg/mL to 10 μg/mL) | < 1 nM |  |  |  |  |  |  | 
6 | CSCC(=O)N[C@H]1Cc2cccc(C(=O)OCOC(=O)C(C)(C)C)c2OB1O [Compound 23, (R)-pivaloyloxymethyl 2-hydroxy-3-(2-(methylthio)acetamido)-3,4-dihydro-2H-benzo[e][1,2]oxaborinine-8-carboxylate] |  |  |  |  |  |  |  |  |  |  |  |  | 1860 µg/mL | 1350 µg/mL | 1000 µg/mL | 1780 µg/mL | 1440 µg/mL | 1100 µg/mL
7 | CSCC(=O)N[C@H]1Cc2cccc(C(=O)OCOC(=O)OC(C)C)c2OB1O [Compound 24, (R)-(isopropoxycarbonyloxy)methyl 2-hydroxy-3-(2-(methylthio)acetamido)-3,4-dihydro-2H-benzo[e][1,2]oxaborinine-8-carboxylate] |  |  |  |  |  |  |  |  |  |  |  |  | 1790 µg/mL | 550 µg/mL | 240 µg/mL | 1660 µg/mL | 910 µg/mL | 330 µg/mL
8 | CCCC(=O)OCOC(=O)c1cccc2c1OB(O)[C@@H](NC(=O)CSC)C2 [Compound 25, (R)-butyryloxymethyl 2-hydroxy-3-(2-(methylthio)acetamido)-3,4-dihydro-2H-benzo[e][1,2]oxaborinine-8-carboxylate] |  |  |  |  |  |  |  |  |  |  |  |  | 27.3 µg/mL | NDT | NDT | 31.2 µg/mL | 1.94 µg/mL | NDT
9 | CCC(CC)C(=O)OCOC(=O)c1cccc2c1OB(O)[C@@H](NC(=O)CSC)C2 [Compound 26, (R)-(2-ethylbutanoyloxy)methyl 2-hydroxy-3-(2-(methylthio)acetamido)-3,4-dihydro-2H-benzo[e][1,2]oxaborinine-8-carboxylate] |  |  |  |  |  |  |  |  |  |  |  |  | 1520 µg/mL | 920 µg/mL | 790 µg/mL | 1380 µg/mL | 1150 µg/mL | 1080 µg/mL

— patent US9642869B2, “Boronic acid derivatives and therapeutic uses thereof” (Rempex Pharmaceuticals, Inc., priority 2013, dated 2017)
